# Earlier results in patent US20120040927A1, “MEDICINAL ANTIFUNGAL AND STEROID CREAM INCORPORATING A BIOPOLYMER AND A PROCESS TO MAKE IT” (APEX LABORATORIES PRIVATE LIMITED, priority 2009, published 2012).
# Read-outs that look alike come from different tables or passages of the source.
# Columns and labels:
# [1] = test system: Trichophyton rubrum, Trichophyton mentagrophytes, Epidermophyton floccosum, Microsporum canis and Candida species including Candida albicans
# [2] = not given; remark: listed apart in the source
# [3] = not given; remark: listed apart in the source
Structure (SMILES),"Absorption (humans, oral administration)",Absorption (topical and vaginal administration),In vitro antifungal activity against isolates [1],Solubility in ether ([2]; ether),"Solubility in polyethylene glycol 400, ethanol and chloroform ([2]; polyethylene glycol 400, ethanol, chloroform)",Solubility in water [2],Protein binding [3],"Solubility in alcohol and in chloroform ([2]; alcohol, chloroform)"
"Clc1ccccc1C(c1ccccc1)(c1ccccc1)n1ccnc1 [Clotrimazole, 1-(o-Chloro-α, α-diphenylbenzyl)imidazole]",well absorbed,minimally absorbed,fungistatic and fungicidal activity,sparingly soluble,very soluble,practically insoluble,about 90%,–
CC(=O)OCC(=O)[C@@]1(O)CC[C@H]2[C@@H]3CCC4=CC(=O)CC[C@]4(C)[C@H]3[C@@H](O)C[C@@]21C [Hydrocortisone Acetate],–,–,–,–,–,insoluble,–,slightly soluble
